Measured values reported in a compilation of properties of binary mixtures (doi:10.2298/jsc160317058s).

Assay: xn = mol fraction of the nth substance listed
Settings: 100 kPa

CN(C)c1ccccc1 + CCCC[n+]1ccn(C)c1.O=S(=O)([O-])C(F)(F)F
viscosity [mPa·s]
Settings	288.15 K	293.15 K	298.15 K	303.15 K	308.15 K	313.15 K	318.15 K	323.15 K	328.15 K	333.15 K
x1 = 0.1	97.6	75.7	59.9	48.1	39.5	32.2	–	23	–	–
x1 = 0.2	72.8	57.1	45.7	37	–	–	21.46	18.3	15.74	13.64
x1 = 0.2998	–	42.8	34.8	28.4	23.9	19.91	17.1	14.72	12.77	11.16
x1 = 0.397	–	31.5	–	21.69	18.27	15.46	13.4	11.63	10.19	8.98
x1 = 0.5045	26.1	21.17	17.76	14.77	12.85	11.04	9.68	8.5	7.52	–
x1 = 0.5996	16.87	13.93	11.92	10.23	8.87	7.69	6.84	6.08	5.43	4.9
x1 = 0.6997	–	8.5	7.42	6.47	5.71	–	–	4.09	3.7	3.36
x1 = 0.7994	6	5.21	4.62	4.1	3.68	3.3	3.01	2.75	2.52	2.31
x1 = 0.8945	3.27	2.91	–	2.37	2.164	1.988	–	1.692	–	–
x1 = 1	–	–	1.302	1.206	1.123	1.056	0.981	–	0.865	0.819

Nc1ccccc1 + CCCC[n+]1ccn(C)c1.O=S(=O)([O-])C(F)(F)F
x1 = 1
Settings	viscosity [mPa·s]
288.15 K	5.32
293.15 K	4.41
298.15 K	3.74
303.15 K	3.2
308.15 K	2.78
313.15 K	2.45
318.15 K	2.159
328.15 K	1.738
333.15 K	1.577

CCCC[n+]1ccn(C)c1.O=S(=O)([O-])C(F)(F)F + CN(C)c1ccccc1
x2 = 0
Settings	viscosity [mPa·s]
288.15 K	132.7
293.15 K	102
298.15 K	80.1
303.15 K	64
313.15 K	42.8
318.15 K	35.7
323.15 K	30
328.15 K	25.5
333.15 K	22

CCCC[n+]1ccn(C)c1.O=S(=O)([O-])C(F)(F)F + Nc1ccccc1
viscosity [mPa·s]
Settings	288.15 K	293.15 K	298.15 K	303.15 K	308.15 K	313.15 K	318.15 K	323.15 K	328.15 K	333.15 K
x2 = 0	–	102	80.1	64	52.2	42.8	35.7	30	25.5	22
x2 = 0.1	110.3	85.3	67.5	54.6	44.4	36.6	30.6	25.9	22.17	19.07
x2 = 0.1995	90.9	70.6	–	45.5	37.2	30.7	25.8	21.9	18.82	–
x2 = 0.3002	–	–	45.9	–	30.6	25.4	21.47	–	15.71	13.63
x2 = 0.3996	–	–	–	–	–	–	–	15.11	13.02	11.38
x2 = 0.8999	8.95	7.31	6.18	5.26	4.54	3.93	3.5	–	–	2.47
